Measured values from US20150239831A1, “INHIBITORS OF CENTRAL NERVOUS SYSTEM VASOACTIVE INHIBITORY PEPTIDE RECEPTOR 2” (The Trustees Of Columbia University In The City Of New York, priority 2012, published 2015).

Assays:
Format in all cases: cell-based
Set-up in all cases: expressed in transfected cells; host or cells: HEK293 cells transfected with VIPR2 in pCDNA3.1 (as described)
VIPR2 [1] = target: T1, VIPR2 (Homo sapiens, UniProt P41587); experiment: % Activity: inhibition of VIP-induced cAMP elevation and β-arrestin recruitment (Table 2)
T1 sequence (P41587 24-438): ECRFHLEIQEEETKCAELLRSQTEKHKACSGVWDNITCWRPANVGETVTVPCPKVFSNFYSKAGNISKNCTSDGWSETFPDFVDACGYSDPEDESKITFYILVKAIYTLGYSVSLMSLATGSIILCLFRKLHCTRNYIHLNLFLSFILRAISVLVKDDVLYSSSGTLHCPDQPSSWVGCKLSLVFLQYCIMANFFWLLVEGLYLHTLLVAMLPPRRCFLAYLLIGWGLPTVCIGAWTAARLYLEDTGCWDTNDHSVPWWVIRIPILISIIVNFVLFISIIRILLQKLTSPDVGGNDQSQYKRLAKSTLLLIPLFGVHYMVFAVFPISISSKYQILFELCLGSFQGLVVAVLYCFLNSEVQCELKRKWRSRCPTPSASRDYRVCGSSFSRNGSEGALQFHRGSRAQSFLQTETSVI
Text: (§1) In a further non-limiting embodiment of the invention, the ability of a compound to inhibit VIPR2 and thereby […] a VIP-induced increase in cAMP may be measured using a Homogeneous Time-Resolved Fluorescence (“HTRF® assay; Cisbio Bioassays) as used in Chu et al., 2010, Molecular Pharmacol. 7795-101. In a method as used in Chu et al., 2010, Molecular Pharmacol. 7795-101, HEK293 cells may be transfected with nucleic acid encoding VIPR2, for example human VIPR2 (“hVIPR2”), for example comprised in a vector such as pCDNA3.1 vector. Successful transformants may then be selected, for example using 800 μg/ml G418. Clonal stable cell lines may then be generated by limited dilution to single cells and then may be clonally expanded and tested for VIP -dependent cAMP response. For the cAMP assay, about 3000-15,000 cells (in about 4-25 μl) may be placed in a well of an assay plate. The next day, inhibitor or test inhibitor and VIP may be added in a volume about 1-2 percent of the initial volume. Assay plates may then be returned to a cell incubator for 30 min before addition of a one-half volume of cAMP conjugate and, relative to the amount of cAMP conjugate, an equal volume of anti-cAMP conjugate (Cisbio). After at least 1 h of room-temperature incubation, HTRF signal may be read, for example using Viewlux or EnVision (PerkinElmer Life and Analytical Sciences, Waltham, Mass.). The ratio of […] at 665 nm and 620 nm times 10,000 may be calculated and plotted.
(§2) In a further non-limiting embodiment of the invention, the ability of a compound to inhibit VIPR2 GPCR activity may be tested, for example, using the PathHunter® eXpress β-Arrestin GPCR system (Discoverx Corporation, Fremont, Calif., US), as used by Chu et al., 2010, Molecular Pharmacol. 7795-101. In this assay, β-Arrestin is fused to the “Enzyme Acceptor” (“EA”), an N-terminal deletion mutant of β-gal, and the GPCR of interest is fused to a smaller (42 amino acids), weakly complementing portion of the β-gal enzyme (termed “ProLink™”). In cells that stably express these fusion proteins, the interaction of β-Arrestin and the GPCR following ligand stimulation forces the complementation of the two β-gal fragments resulting in the formation of a functional enzyme that converts substrate to detectable signal. In the absence of an interaction between the GPCR and β-Arrestin, the enzyme activity is low due to the low affinity of the two enzyme fragments. For example, a nucleic acid encoding VIPR2, for example hVIPR2, may be cloned into the ProLink vector (DiscoveRx) for GPCR-ProLink fusion protein production. Parental HEK293 cells that stably express β-arrestin2-β-gal-EA fusion protein (DiscoveRx) may be detached and transiently transfected with the VIPR2-containing vector using Fugene6 transfection reagent in suspension mode. Transfected cells in assay medium may be plated into test plates, for example at 15,000 cells/25 μl/well. After overnight incubation, 500 nl of an inhibitor or test inhibitor may be introduced into the test plate followed by 2 h incubation at 37° C., 5% CO2. Flash detection reagents may be added at 12.5 μl/well. After 5 min to 1 h of room-temperature incubation, the cell plates may be read on CLIPR (PerkinElmer Life and Analytical Sciences)or Acquest (Molecular Devices, Sunnyvale, Calif.) for luminescence signal.
(§3) A series of compounds were prepared using a synthetic method analogous to that set forth in Scheme 1, above, and then tested for their ability to inhibit VIP-induced cAMP elevation and β-arrestin recruitment, as described herein (Discoverx Corporation, Fremont, Calif., US). Compound activities were also tested in a BRET-based assay, as described herein. The results are shown below in Tables 1-4, above.

VIPR2 [2] = target: T1, VIPR2; experiment: Inhibition of VIP-induced cAMP elevation (% Activity cAMP)
Text: as §1
(§4) A series of compounds were prepared using a synthetic method analogous to that set forth in Scheme 1, above, and then tested for their ability to inhibit VIP-induced cAMP elevation and β-arrestin recruitment.
as §3

VIPR2 [3] = target: T1, VIPR2; experiment: Inhibition of VIP-induced β-arrestin recruitment (% Activity Arrestin)
Text: as §2, §4, §3

Row | SMILES | % Activity (VIPR2 [1]) | inhibition at 0.5 µM (VIPR2 [2]; Batch 1) | inhibition at 1 µM (VIPR2 [2]; Batch 1) | inhibition at 5 µM (VIPR2 [2]; Batch 1) | inhibition at 0.5 µM (VIPR2 [3]; Batch 1) | inhibition at 1 µM (VIPR2 [3]; Batch 1) | inhibition at 5 µM (VIPR2 [3]; Batch 1) | inhibition at 0.5 µM (VIPR2 [2]; Batch 3) | inhibition at 1 µM (VIPR2 [2]; Batch 3) | inhibition at 5 µM (VIPR2 [2]; Batch 3) | inhibition at 0.5 µM (VIPR2 [3]; Batch 3) | inhibition at 1 µM (VIPR2 [3]; Batch 3) | inhibition at 5 µM (VIPR2 [3]; Batch 3) | inhibition at 0.5 µM (VIPR2 [2]; Batch 2) | inhibition at 1 µM (VIPR2 [2]; Batch 2) | inhibition at 5 µM (VIPR2 [2]; Batch 2) | inhibition at 0.5 µM (VIPR2 [3]; Batch 2) | inhibition at 1 µM (VIPR2 [3]; Batch 2) | inhibition at 5 µM (VIPR2 [3]; Batch 2)
1 | O=C(NC[C@@H](O)C[C@@H](Cc1ccccc1)C(=O)N[C@H]1c2ccccc2C[C@H]1O)c1ccccc1[N+](=O)[O-] [G] | 17.6% | 17.6% | 14.3% | 9.1% | 36.4% | 35.1% | 26.1% |  |  |  |  |  |  |  |  |  |  |  | 
2 | CCN(CC)C(=O)[C@H](Cc1ccccc1)C[C@H](O)CNS(=O)(=O)c1ccc([N+](=O)[O-])cc1 [Compound B15A] | 0.7% |  |  |  |  |  |  |  |  |  |  |  |  | -8.1% | -6.1% | -4.3% | -5.4% | 7.9% | 5.7%
3 | O=C([C@H](Cc1ccccc1)C[C@H](O)CNS(=O)(=O)c1ccc([N+](=O)[O-])cc1)N1CCOCC1 [Compound B9A] | 0.6% |  |  |  |  |  |  |  |  |  |  |  |  | -3.8% | -1.6% | 2.4% | -4.3% | 8.9% | -1.2%
4 | O=C(NC[C@@H](O)C[C@@H](Cc1ccccc1)C(=O)N[C@H]1c2ccccc2C[C@H]1O)c1cccc([N+](=O)[O-])c1 [M] | 4.75% | 11.8% | 11% | 13.5% | 19.9% | 7.4% | -4% |  |  |  |  |  |  |  |  |  |  |  | 
5 | O=C(NC1CCCC1)[C@H](Cc1ccccc1)C[C@H](O)CNS(=O)(=O)c1ccc([N+](=O)[O-])cc1 [Compound B1A] | 6.95% |  |  |  |  |  |  |  |  |  |  |  |  | -2.1% | -4.9% | 4.7% | 17.4% | 17.1% | 9.2%
6 | C#CCNC(=O)[C@H](Cc1ccccc1)C[C@H](O)CNS(=O)(=O)c1ccc([N+](=O)[O-])cc1 [Compound B21A] | 3.55% |  |  |  |  |  |  |  |  |  |  |  |  | 5.4% | 7.8% | 7.3% | 9.4% | 7.2% | -0.2%
7 | O=C(NCc1ccccc1)[C@H](Cc1ccccc1)C[C@H](O)CNS(=O)(=O)c1ccc([N+](=O)[O-])cc1 [Compound B3A] | 10.65% |  |  |  |  |  |  |  |  |  |  |  |  | -1.1% | -1.3% | -2.9% | 1.8% | 4.4% | 24.2%
8 | O=C(NCc1ccc(F)cc1F)[C@H](Cc1ccccc1)C[C@H](O)CNS(=O)(=O)c1ccc([N+](=O)[O-])cc1 [Compound B14A] | 27.2000% |  |  |  |  |  |  |  |  |  |  |  |  | 2.4% | 7.2% | 23.6% | -19.5% | -13.3% | 30.8%

Other lines, results leading:

Row | % Activity (VIPR2 [1]) | inhibition at 0.5 µM (VIPR2 [2]; Batch 1) | inhibition at 1 µM (VIPR2 [2]; Batch 1) | inhibition at 5 µM (VIPR2 [2]; Batch 1) | inhibition at 0.5 µM (VIPR2 [3]; Batch 1) | inhibition at 1 µM (VIPR2 [3]; Batch 1) | inhibition at 5 µM (VIPR2 [3]; Batch 1) | inhibition at 0.5 µM (VIPR2 [2]; Batch 3) | inhibition at 1 µM (VIPR2 [2]; Batch 3) | inhibition at 5 µM (VIPR2 [2]; Batch 3) | inhibition at 0.5 µM (VIPR2 [3]; Batch 3) | inhibition at 1 µM (VIPR2 [3]; Batch 3) | inhibition at 5 µM (VIPR2 [3]; Batch 3) | inhibition at 0.5 µM (VIPR2 [2]; Batch 2) | inhibition at 1 µM (VIPR2 [2]; Batch 2) | inhibition at 5 µM (VIPR2 [2]; Batch 2) | inhibition at 0.5 µM (VIPR2 [3]; Batch 2) | inhibition at 1 µM (VIPR2 [3]; Batch 2) | inhibition at 5 µM (VIPR2 [3]; Batch 2) | SMILES
9 | 21.85% | 14.4% | 16% | 26.5% | 11.3% | 20.1% | 17.2% |  |  |  |  |  |  |  |  |  |  |  |  | O=C(Cc1cccc(Cl)c1)NC[C@@H](O)C[C@@H](Cc1ccccc1)C(=O)N[C@H]1c2ccccc2C[C@H]1O [Compound A19]
10 | 16.2% |  |  |  |  |  |  | 17.2% | 18.2% | 20.6% | 8.1% | -2% | 11.8% |  |  |  |  |  |  | CC(C)Nc1ccc(S(=O)(=O)NC[C@@H](O)C[C@@H](Cc2ccccc2)C(=O)N[C@H]2c3ccccc3C[C@H]2O)cc1 [Compound X085]
11 | 6.75% |  |  |  |  |  |  | -4.3% | 32.3% | 3% | -9.8% | -1.8% | 10.5% |  |  |  |  |  |  | CC(=O)Nc1ccc(S(=O)(=O)NC[C@H](C[C@@H](Cc2ccccc2)C(=O)N[C@H]2c3ccccc3C[C@H]2O)OC(C)=O)cc1 [Compound X089]
12 | 11.65% |  |  |  |  |  |  | 15.2% | 19.1% | 19.1% | -1.2% | 4.9% | 4.2% |  |  |  |  |  |  | CC(=O)Nc1ccc(S(=O)(=O)NC[C@@H](O)C[C@@H](Cc2ccccc2)C(=O)N[C@H]2c3ccccc3C[C@H]2O)cc1 [Compound X088]
13 | 8.25% |  |  |  |  |  |  | 0.6% | 1.5% | 26.9% | -3.4% | -1.2% | -10.4% |  |  |  |  |  |  | CCC(=O)Nc1ccc(S(=O)(=O)NC[C@@H](O)C[C@@H](Cc2ccccc2)C(=O)N[C@H]2c3ccccc3C[C@H]2O)cc1 [Compound X091]
14 | 6.1% | 14.2% | 19.2% | 21% | -39.7% | 10.9% | -8.8% |  |  |  |  |  |  |  |  |  |  |  |  | O=C(NC[C@@H](O)C[C@@H](Cc1ccccc1)C(=O)N[C@H]1c2ccccc2C[C@H]1O)c1ccncc1 [Compound A18]
15 | 15.5% | 10.7% | 16% | 23.2% | 16.2% | 11.3% | 7.8% |  |  |  |  |  |  |  |  |  |  |  |  | CC(C)(C)c1ccc(C(=O)NC[C@@H](O)C[C@@H](Cc2ccccc2)C(=O)N[C@H]2c3ccccc3C[C@H]2O)cc1 [Compound A26]
16 | 10.05% |  |  |  |  |  |  | -1.4% | 0.1% | 25.5% | 4.1% | 1.8% | -5.4% |  |  |  |  |  |  | O=C(N[C@H]1c2ccccc2C[C@H]1O)[C@H](Cc1ccccc1)C[C@H](O)CNS(=O)(=O)c1ccc(C(=O)N2CCOCC2)cc1 [Compound X099]
17 | 12.9% | 14.9% | 17.7% | 20.3% | 6.1% | 32.7% | 5.5% |  |  |  |  |  |  |  |  |  |  |  |  | O=C(NC[C@@H](O)C[C@@H](Cc1ccccc1)C(=O)N[C@H]1c2ccccc2C[C@H]1O)c1ccccn1 [Compound A17]
